Measurements: US11666642B2, “PDE5 compositions and methods for immunotherapy” (Obsidian Therapeutics, Inc., priority 2017, dated 2023)

Legend:
[1] = tested on: hPDE5 mutants fused to GFP in HCT116 cells; assay: Sildenafil dose response of combination mutants, MFI by FACS; type: cell-based, human; details: for MFI / SR: 24 hours
Description: (§1) Mean fluorescence intensity (MFI) was measured by FACS. Parental HCT116 and cells expressing OT-hPDE5N-019 wildtype construct were also included as controls. […] The destabilizing mutation coefficient ratio was calculated as the fold change in GFP intensity in the hPDE5 mutant constructs compared to the hPDE5 wildtype construct (OT-hPDE5N-019) in the absence of the ligand. Destabilizing mutation coefficient ratios less than 1 are desirable. Stabilization ratios greater than 1 are desired in DDs.

[2] = tested on: hPDE5 mutants fused to GFP in HCT116 cells; assay: Comparative analysis of hPDE5 ligands: stabilization ratios at the highest concentrations; type: cell-based, human
Description: as §1
as §1, with “expressing OT-hPDE5N-019 comprising hPDE5 wildtype construct” for “expressing OT-hPDE5N-019 wildtype construct”, “Destabilizing mutation co-efficient ratios less” for “Destabilizing mutation coefficient ratios less”
The response of hPDE5 combination mutants to increasing doses of Tadalafil was tested. HCT116 cells transduced with hPDE5 constructs were treated with Tadalafil for 24 hours at doses ranging from 0.14 to 100 μM. Mean fluorescence intensity (MFI) was measured by FACS. Parental HCT116 and cells expressing OT-hPDE5N-019 comprising hPDE5 wildtype construct were also included as controls. The response of the combination mutants to Tadalafil was compared to the response of the single mutant construct OT-hPDE5N-020. The stabilization ratio (SR) was calculated as the fold change in GFP intensity in Tadalafil treated samples compared to treatment with DMSO (i.e. in the absence of ligand) with the same construct. The destabilizing mutation coefficient was calculated as the fold change in GFP intensity in the hPDE5 mutant constructs compared to the hPDE5 wildtype construct (OT-hPDE5N-0019) in the absence of the ligand. Destabilizing mutation coefficient less than 1 are desirable. Stabilization ratios greater than 1 are desired in DDs.

“OT-hPDE5N-020: construct consisting of E535-Q860 amino acids of hPDE5 with the R732L mutant, SG linker, AcGFP; single mutant construct” showed an MFI ([1]; DMSO, HCT116) of 6172, an SR ([1]; Sildenafil 0.04 μM vs DMSO) of 0.86 and an MFI ([1]; Sildenafil 0.04 μM) of 5299. The SR ([1]; Sildenafil 0.12 μM vs DMSO) was 1.04, the MFI ([1]; Sildenafil 0.12 μM) was 6441 and the SR ([1]; Sildenafil 0.37 μM vs DMSO) was 2.06. The MFI ([1]; Sildenafil 0.37 μM) was 12739, the SR ([1]; Sildenafil 1.11 μM vs DMSO) was 2.58 and the MFI ([1]; Sildenafil 1.11 μM) was 15952. The SR ([1]; Sildenafil 3.33 μM vs DMSO) was 3.82, the MFI ([1]; Sildenafil 3.33 μM) was 23549 and the SR ([1]; Sildenafil 10 μM vs DMSO) was 4.49. It also gave an MFI ([1]; Sildenafil 10 μM) of 27693, an SR ([1]; Sildenafil 30 μM vs DMSO) of 7.78 and an MFI ([1]; Sildenafil 30 μM) of 47992. The “destabilizing mutation co-efficient ratio” value ([1]; Sildenafil dose response experiment, absence of ligand, vs OT-hPDE5N-019) was 0.1, the Stabilization ratio ([2]; Sildenafil (30 μM)) was 7.78 and the Stabilization ratio ([2]; Tadalafil (100 μM)) was 8.94. The Stabilization ratio ([2]; Vardenafil (30 μM)) was 9.62.
